According to patent publication US6391595B1, “Transferase and amylase, process for producing the enzymes, use thereof, and gene coding for the same” (Kirin Beer Kabushiki Kaisha, priority 1994, dated 2002):
Like-named read-outs stand apart in the source and are kept apart here.

Assays:
[1] = test system: transferase derived from the Sulfolobus solfataricus strain KM1; test: Influence of activators and inhibitors on glucosyltrehalose-producing activity; type: biochemical; conditions: for Activating or inhibitory effect: added with the substrate
[2] = test system: debranching enzyme derived from the Sulfolobus solfataricus strain KM1; test: Influence of activators and inhibitors on debranching enzyme activity; type: biochemical; conditions: for Residual activity: Concentration 5 mM
[3] = target: T1, amylase derived from the Sulfolobus solfataricus strain KM1 (Saccharolobus solfataricus, UniProt Q55088); test: biochemical; type: biochemical; conditions: for Activating or inhibitory effect: added with the substrate
T1 construct: endogenous in cells; host or cells: Sulfolobus solfataricus strain KM1 cells
T1 sequence (Q55088 1-559): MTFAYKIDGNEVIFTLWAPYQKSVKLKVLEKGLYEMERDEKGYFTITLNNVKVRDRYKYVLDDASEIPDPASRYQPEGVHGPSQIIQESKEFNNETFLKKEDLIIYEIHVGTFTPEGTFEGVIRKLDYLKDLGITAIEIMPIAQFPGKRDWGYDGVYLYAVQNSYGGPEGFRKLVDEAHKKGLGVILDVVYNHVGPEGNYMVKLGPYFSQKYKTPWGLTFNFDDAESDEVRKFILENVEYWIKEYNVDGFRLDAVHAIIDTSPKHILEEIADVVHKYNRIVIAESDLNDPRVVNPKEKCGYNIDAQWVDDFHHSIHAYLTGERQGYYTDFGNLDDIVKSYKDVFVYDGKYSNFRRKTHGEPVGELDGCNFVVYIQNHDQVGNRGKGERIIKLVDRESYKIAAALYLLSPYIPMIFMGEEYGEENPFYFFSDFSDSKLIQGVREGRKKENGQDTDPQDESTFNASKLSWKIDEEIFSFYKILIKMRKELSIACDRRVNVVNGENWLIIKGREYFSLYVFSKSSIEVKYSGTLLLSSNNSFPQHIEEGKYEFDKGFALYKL

[4] = target: T1, amylase derived from the Sulfolobus solfataricus strain KM1; test: Substrate specificity of the purified amylase (hydrolyzing properties, TSK-gel Amide-80 HPLC); type: biochemical; conditions: for Liberated oligosaccharide / Production rate of mono- and disaccharides: 25.0 Units/ml enzyme, 10 mM substrate (amylopectin and soluble starch 2.8%); for Production rate of mono- and disaccharides: 1 Unit = 1 μmol per hour
Procedure: The hydrolyzing properties were analyzed by allowing 25.0 Units/ml (in terms of the enzymatic activity when maltotriosyltrehalose is used as the substrate) of the present purified enzyme to act on the various 10 mM substrates (except amylopectin and soluble starch were used as 2.8% solutions) listed in Table 16 below, and the hydrolyzed products were also analyzed.
Incidentally, each enzymatic activity in Table 16 is expressed with such a unit as 1 Unit equals the activity of liberating 1 μmol of each of the monosaccharide and disaccharide per hour.

[5] = target: T2, swine pancreatic α-amylase (Sus scrofa, UniProt P00690); test: Hydrolysis of oligosaccharides by pancreatic α-amylase (comparative); type: biochemical; conditions: 1 Unit/ml α-amylase, 10 mM substrate, pH 6.9, 20° C.; for Production rate of di- and trisaccharides: 1 Unit = 1 umol per hour
T2 construct: purchased Sigma Co. A-6255
T2 sequence (P00690 16-511): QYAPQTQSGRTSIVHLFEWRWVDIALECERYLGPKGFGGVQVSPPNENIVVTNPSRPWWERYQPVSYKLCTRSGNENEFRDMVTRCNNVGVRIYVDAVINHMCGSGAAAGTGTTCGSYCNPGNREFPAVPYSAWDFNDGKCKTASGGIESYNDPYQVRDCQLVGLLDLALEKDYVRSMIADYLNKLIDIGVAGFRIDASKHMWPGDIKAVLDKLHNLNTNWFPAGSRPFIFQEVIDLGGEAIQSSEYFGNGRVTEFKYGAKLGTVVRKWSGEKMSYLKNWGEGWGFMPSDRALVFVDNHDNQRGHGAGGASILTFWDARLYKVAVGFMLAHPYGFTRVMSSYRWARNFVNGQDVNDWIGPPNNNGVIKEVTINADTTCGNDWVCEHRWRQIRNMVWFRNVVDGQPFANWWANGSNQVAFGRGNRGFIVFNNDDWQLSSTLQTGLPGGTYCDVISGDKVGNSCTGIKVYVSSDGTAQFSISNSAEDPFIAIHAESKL
Procedure: Swine pancreatic α-amylase is known to hydrolyze maltooligosaccharide from the reducing end by two or three sugar units [“Denpun.Kanren Toushitsu Kouso Jikken-hou” (“Experimental methods in enzymes for starch and relating saccharides”), p 135, written by Michinori Nakamura and Keiji Kainuma, published by Gakkai-Shuppan-Sentah]. Upon this, a swine pancreatic α-amylase (manufactured by Sigma Co., A-6255) was analyzed the hydrolyzing properties and the hydrolysates as a comparative example for the novel amylase of the present invention. […] The activity of producing disaccharide and trisaccharide was employed as the index of the enzymatic activity, and the analysis was performed by the TSK-gel Amide-80 HPLC analyzing method described in Example II-1.
Incidentally, the enzymatic activity values in Table 17 were expressed with such a unit as 1 Unit equals the activity of liberating 1 umol of each oligosaccharide per hour.

[6] = target: T3, recombinant novel amylase (Saccharolobus solfataricus, UniProt Q55088); test: Substrate specificity of the recombinant novel amylase (crude enzyme solution); conditions: for Liberated oligosaccharide / Production rate of mono- and disaccharides: 35.2 Units/ml crude enzyme solution, 10 mM substrate (amylopectin and soluble starch 3.0%); for Production rate of mono- and disaccharides: 1 Unit = 1 μmol per hour
T3 sequence (Q55088 1-559): T1 sequence (Q55088 1-559)

[7] = Concentration 5 mM, read-out: Residual activity

Structure (SMILES) | Residual activity ([1]; Concentration 5 mM) [%] | Residual activity [2] [%] | Residual activity ([3]; Concentration 5 mM) [%] | Liberated oligosaccharide [4] | Production rate of mono- and disaccharides [4] [units/ml] | further results
O[C@H](CS)[C@H](O)CS (racemic) [Dithiothreitol] | 84.5 | 106.0 | – | – | – | remaining activity at 5000 µM [3, 7]: 116%
OCCS [2-Mercaptoethanol] | 100.3 | 104.1 | 141.7 | – | – | –
O=[N+]([O-])[O-].[Ag+] [AgNO3] | 121.0 | – | 105.7 | – | – | –
[Ca+2].[Cl-].[Cl-] [CaCl2] | 93.6 | 105.7 | 97.1 | – | – | Activating or inhibitory effect [1]: would not be activated; Activating or inhibitory effect ([2]; added with the substrate): would not be activated; Activating or inhibitory effect [3]: would not be activated
[Cl-].[Cl-].[Co+2] [CoCl2] | 88.5 | 87.2 | 97.1 | – | – | –
O=C(O)CN(CCN(CC(=O)O)CC(=O)O)CC(=O)O [EDTA] | – | – | – | – | – | Residual activity [1]: 96.8%; Residual activity [3]: 106.3%
[Cl][Fe]([Cl])[Cl] [FeCl3] | 90.0 | 39.0 | 38.0 | – | – | –
O=S(=O)([O-])[O-].[Fe+2] [FeSO4] | 108.3 | 74.1 | 73.5 | – | – | –
OCC1OC(OC2OC(CO)C(OC3OC(CO)C(O)C(O)C3O)C(O)C2O)C(O)C(O)C1O [Glucosyltrehalose, α-D-maltosyl α-D-glucopyranoside] | – | – | – | Glucose + Trehalose | 0.04 | Liberated oligosaccharide [5]: not decomposed; Production rate of di- and trisaccharides [5]: 0 units/ml; Liberated oligosaccharide [6]: Glucose + Trehalose; Production rate of mono- and disaccharides [6]: 0.01 units/ml
OC[C@H]1O[C@H](OC[C@H]2OC(O)[C@H](O)[C@@H](O)[C@@H]2O)[C@H](O)[C@@H](O)[C@@H]1O (stereo partly drawn) [Isomaltose] | – | – | – | not decomposed | 0 | Action of the enzyme on the substrate [4]: did not act; Action of the enzyme on the substrate [6]: did not act; Liberated oligosaccharide [6]: not decomposed; Production rate of mono- and disaccharides [6]: 0 units/ml
OC[C@H]1O[C@H](O[C@H]2O[C@H](CO)[C@@H](O[C@H]3O[C@H](CO)[C@@H](O[C@H]4O[C@H](CO)[C@@H](O[C@H]5O[C@H](CO)[C@@H](O[C@H]6O[C@H](CO)[C@@H](O[C@H]7O[C@H](CO)[C@@H](O)[C@H](O)[C@H]7O)[C@H](O)[C@H]6O)[C@H](O)[C@H]5O)[C@H](O)[C@H]4O)[C@H](O)[C@H]3O)[C@H](O)[C@H]2O)[C@H](O)[C@@H](O)[C@@H]1O [Maltopentaosyltrehalose] | – | – | – | G5 + Trehalose | 25.5 | Liberated oligosaccharide [5]: G3 + Maltosyltrehalose; Production rate of di- and trisaccharides [5]: 4.36 units/ml
OCC1OC(OC2OC(CO)C(OC3OC(CO)C(OC4OC(CO)C(O)C(O)C4O)C(O)C3O)C(O)C2O)C(O)C(O)C1O [Maltosyltrehalose, α-D-maltotriosyl α-D-glucopyranoside] | – | – | – | G2 + Trehalose | 3.93 | Liberated oligosaccharide [5]: not decomposed; Production rate of di- and trisaccharides [5]: 0 units/ml; Liberated oligosaccharide [6]: G2 + Trehalose; Production rate of mono- and disaccharides [6]: 4.52 units/ml
OC[C@H]1O[C@H](O[C@H]2O[C@H](CO)[C@@H](O[C@H]3O[C@H](CO)[C@@H](O[C@H]4O[C@H](CO)[C@@H](O[C@H]5O[C@H](CO)[C@@H](O[C@H]6O[C@H](CO)[C@@H](O)[C@H](O)[C@H]6O)[C@H](O)[C@H]5O)[C@H](O)[C@H]4O)[C@H](O)[C@H]3O)[C@H](O)[C@H]2O)[C@H](O)[C@@H](O)[C@@H]1O [Maltotetraosyltrehalose] | – | – | – | G4 + Trehalose | 27.3 | Liberated oligosaccharide [5]: G3 + Glucosyltrehalose; Production rate of di- and trisaccharides [5]: 2.57 units/ml
OCC1OC(OC2OC(CO)C(OC3OC(CO)C(OC4OC(CO)C(OC5OC(CO)C(O)C(O)C5O)C(O)C4O)C(O)C3O)C(O)C2O)C(O)C(O)C1O [Maltotriosyltrehalose, α-D-maltotetraosyl α-D-glucopyranoside] | – | – | – | G3 + Trehalose | 25.0 | Liberated oligosaccharide [5]: G2 + Glucosyltrehalose; Production rate of di- and trisaccharides [5]: 0.03 units/ml; Liberated oligosaccharide [6]: G3 + Trehalose; Production rate of mono- and disaccharides [6]: 35.21 units/ml
[Cl-].[Cl-].[Mg+2] [MgCl2] | 111.3 | 82.9 | 93.5 | – | – | –
[Cl][Mn][Cl] [MnCl2] | 74.2 | 91.2 | 101.8 | – | – | –
CCCCCCCCCCCCOS(=O)(=O)[O-].[Na+] [SDS, sodium dodecyl sulfate] | 0.0 | – | – | – | – | Activating or inhibitory effect [1]: inhibitory effects; remaining activity at 5000 µM [3, 7]: 0%; Activating or inhibitory effect [3]: inhibitory effects
OC[C@H]1O[C@H](O[C@H]2O[C@H](CO)[C@@H](O)[C@H](O)[C@H]2O)[C@H](O)[C@@H](O)[C@@H]1O [α,α-Trehalose, α,α-trehalose] | – | – | – | not decomposed | 0 | Action of the enzyme on the substrate [4]: did not act; Residual activity ([1]; Concentration 0.5 mM): 107.8%; Action of the enzyme on the substrate [6]: did not act; Liberated oligosaccharide [6]: not decomposed; Production rate of mono- and disaccharides [6]: 0 units/ml; remaining activity at 500 µM ([3]; Concentration 0.5 mM, read-out: Residual activity): 98.2%
